{
  "source": "patent US7265131B2",
  "about": "“Isoquinolinone derivatives and their use as therapeutic agents” (Exelixis, Inc., priority 2002, dated 2007)",
  "data": [
    {"biological_target": "T1, LXRα (Homo sapiens, UniProt Q13133)", "T1 construct": "were made by cloning the appropriate full-length cDNAs into the pBacPakhis1 vector; poly-His (pBacPakhis1) (N); made in house; host or cells: Sf9 insect cells (baculovirus), crude lysate", "T1 sequence (Q13133 whole entry)": "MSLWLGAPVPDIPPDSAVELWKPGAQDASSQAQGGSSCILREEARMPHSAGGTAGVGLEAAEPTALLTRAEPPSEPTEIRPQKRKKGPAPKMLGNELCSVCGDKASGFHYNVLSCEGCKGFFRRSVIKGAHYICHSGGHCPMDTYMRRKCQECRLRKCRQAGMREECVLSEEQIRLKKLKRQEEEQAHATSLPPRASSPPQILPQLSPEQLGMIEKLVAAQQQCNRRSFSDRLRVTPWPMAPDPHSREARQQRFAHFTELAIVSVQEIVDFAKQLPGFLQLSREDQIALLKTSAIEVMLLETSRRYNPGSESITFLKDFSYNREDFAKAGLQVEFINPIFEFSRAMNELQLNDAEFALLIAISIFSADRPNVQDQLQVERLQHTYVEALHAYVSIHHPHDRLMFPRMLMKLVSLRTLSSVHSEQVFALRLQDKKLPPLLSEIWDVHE", "T1 sequence (P19793 whole entry, further chain)": "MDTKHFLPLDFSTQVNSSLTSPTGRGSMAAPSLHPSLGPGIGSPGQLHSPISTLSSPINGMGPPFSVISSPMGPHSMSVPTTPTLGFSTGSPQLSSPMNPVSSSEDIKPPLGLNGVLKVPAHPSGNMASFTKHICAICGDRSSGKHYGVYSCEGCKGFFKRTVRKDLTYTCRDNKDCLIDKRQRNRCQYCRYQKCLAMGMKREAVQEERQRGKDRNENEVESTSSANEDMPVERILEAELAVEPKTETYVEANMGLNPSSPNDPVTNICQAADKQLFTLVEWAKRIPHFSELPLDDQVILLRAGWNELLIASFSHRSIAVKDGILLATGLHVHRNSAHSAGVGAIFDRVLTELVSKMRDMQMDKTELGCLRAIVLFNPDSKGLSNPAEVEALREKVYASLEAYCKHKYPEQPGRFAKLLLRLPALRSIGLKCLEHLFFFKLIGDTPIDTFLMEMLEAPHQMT", "assay": "Scintillation proximity assay (SPA), competition with 3H-24,25-epoxycholesterol", "format": "binding", "settings": "average Ki with respect to LXR α", "description": "The SPA assay measures the radioactive signal generated by the binding of ^3H-24,25-epoxycholesterol to LXRα or LXRβ. The basis of the assay is the use of SPA beads containing a scintillant, such that when binding to the receptor brings the labeled ligand into proximity with the bead, the energy from the label stimulates the scintillant to emit light. The light is measured using a standard microplate scintillation reader. The ability of a ligand to bind to a receptor can be measured by assessing the degree to which the compound can compete off a radiolabelled ligand with known affinity for the receptor.\n1. Label: ^3H-24,25-epoxy-cholesterol (Amersham)\n2. LXRα lysate: Baculovirus expressed LXRα/RXR heterodimer with RXR having a 6-HIS tag produced as a crude lysate\n4. SPA beads: Ysi copper His-tag SPA beads (Amersham)\nBaculovirus expression plasmids for human RXR α (accession No NM_002957), LXR a (accession No U22662), LXR β (accession No U07132) were made by cloning the appropriate full-length cDNAs into the pBacPakhis1 vector (Clontech, CA) following standard procedures. Insertion of the cDNAs into the pBAcPakhis1 vector polylinker created an in frame fusion to the cDNA to an N-terminal poly-His tag present in pBacPakhis1. Correct cloning was confirmed by restriction mapping, and/or sequencing.\nCell lysates were prepared by infecting healthy, Sf9 insect cells at a density of approximately 1.25×10^6/ml at 27° C., in a total volume of 500 mL per 1 L sized spinner flasks, cultured under standard conditions. To prepare LXRα lysate, insect cells were co-transfected with the LXR α expression cassette at an M.O.I of 0.5 to 0.8 and with the RXR expression cassette at a M.O.I. of approximately 1.6. To prepare LXRβ lysate, insect cells were co-transfected with the LXR β expression cassette at an M.O.I of approximately 1.6 and with the RXR expression cassette at a M.O.I. of approximately 1.6. In both cases cells were incubated for 48 hours at 27° C. with constant shaking prior to harvesting.\nAfter incubation, cells were harvested by centrifugation and pelleted. Cell pellets were resuspended in two volumes of ice-cold freshly prepared extraction buffer (20 mM Tris pH 8.0, 10 mM Imidazole, 400 mM NaCl, containing one EDTA free protease inhibitor tablet (Roche Catalog No: 1836170) per 10 ml of extraction buffer).\nCells were homogenized slowly on ice using a Douncer to achieve 80-90% cell lysis. The homogenate was centrifuged in a pre-chilled rotor (Ti50 or Ti70, or equivalent) at 45,000 rpm for 30 minutes at 4° C. Aliquots of the supernatant were frozen on dry ice and stored frozen at −80° C. until quantification and quality control. Aliquots of the lysates were tested in the SPA assay to ensure lot to lot consistency, and via SDS-PAGE analysis after purification using Ni-NTA Resin (Qiagen) and adjusted for protein concentration and expression level prior to use in screening assays.\n[^3H] 24,25 Epoxycholesterol (EC) solution: For a single 384-well plate (or 400 wells), 21 μL of [^3H] EC (specific activity 76.5 Ci/mmol, concentration 3.2 mCi/mL) was added to 4.4 mL of 2×SPA buffer to provide for a final concentration of 200 nM. For each additional 384-well plate, an additional 19.1 μL of [^3H] EC was added to 4.0 mL of additional 2×SPA buffer. The final concentration of [^3H] EC in the well was 50 nM.\nLXRα lysate (prepared as above) was diluted with protein lysate dilution buffer. 1400 μL of diluted LXRα lysate was prepared per 384-well plate, (or 200 wells) and 1120 μL of diluted LXRα lysate was prepared for each additional 384-well plate.\nSPA bead solution: For a 384-well plate (or 400 wells), 3.75 mL of 2×SPA buffer w/o EDTA, 2.25 mL of H2O, and 1.5 mL of Ysi His-tag SPA beads (vortex well before taking) were mixed together. For each additional 384-well plate, an additional 3.5 mL of 2×SPA buffer w/o EDTA, 2.1 mL of H2O, and 1.4 mL of Ysi His-tag SPA beads were mixed together. […]", "units": {"Ki": "nM"}, "values": [
      {"smiles": "Nc1ccc(-c2coc(-c3cc4cccc(Cl)c4c(=O)n3Cc3ccc(F)cc3F)c2)cc1C(F)(F)F", "note": "[3-[4-(4-amino-3-trifluoromethylphenyl)furan-2-yl]-8-chloro-2-(2,4-difluorobenzyl)-2H-isoquinolin-1-one]", "Ki": "10 to 150"},
      {"smiles": "O=c1c2c(Cl)cccc2cc(-c2cc(-c3cc(C(F)(F)F)cc(C(F)(F)F)c3)co2)n1Cc1ccc(F)cc1F", "note": "[3-[4-(3,5-bis-trifluoromethylphenyl)furan-2-yl]-8-chloro-2-(2,4-difluorobenzyl)-2H-isoquinolin-1-one]", "Ki": "150 to 500"},
      {"smiles": "Cc1ccc(Cn2c(-c3ccc(Oc4ccccc4)cc3)cc3cccc(C)c3c2=O)cc1", "note": "[8-methyl-2-(4-methylbenzyl)-3-(4-phenoxyphenyl)-2H-isoquinolin-1-one]", "Ki": "10 to 150"},
      {"smiles": "O=c1c2c(Cl)cccc2cc(-c2ccc(Oc3ccccc3)cc2)n1Cc1cccs1", "note": "[8-chloro-3-(4-phenoxyphenyl)-2-thiophen-2-ylmethyl-2H-isoquinolin-1-one]", "Ki": "10 to 150"},
      {"smiles": "Cc1ccc(Cn2c(-c3ccc(Oc4ccccc4)cc3)cc3ccccc3c2=O)c(C)c1", "note": "[2-(2,4-dimethylbenzyl)-3-(4-phenoxyphenyl)-2H-isoquinolin-1-one]", "Ki": "10 to 150"},
      {"smiles": "Cc1cccc(-c2cc3ccccc3c(=O)n2Cc2ccccc2)c1", "note": "[2-benzyl-3-m-tolyl-2H-isoquinolin-1-one]", "Ki": "> 500"},
      {"smiles": "O=c1c2c(Cl)cccc2cc(-c2ccc(Oc3cnccn3)cc2)n1Cc1ccc(F)cc1F", "note": "[8-chloro-2-(2,4-difluorobenzyl)-3-[4-(pyrazin-2-yloxy)phenyl]-2H-isoquinolin-1-one]", "Ki": "10 to 150"},
      {"smiles": "O=c1c2c(Cl)cccc2cc(-c2ccc(Oc3ccccc3)cc2)n1CC1CCCCC1", "note": "[8-chloro-2-cyclohexylmethyl-3-(4-phenoxyphenyl)-2H-isoquinolin-1-one]", "Ki": "10 to 150"},
      {"smiles": "O=c1c2c(Cl)cccc2cc(-c2ccc(Oc3ccccc3)cc2)n1Cc1ccc(F)cc1F", "note": "[8-chloro-2-(2,4-difluorobenzyl)-3-(4-phenoxyphenyl)-2H-isoquinolin-1-one]", "Ki": "10 to 150"},
      {"smiles": "CCOc1ccc(-c2csc(-c3cc4cccc(Cl)c4c(=O)n3Cc3ccc(F)cc3F)c2)cc1Cl", "note": "[8-chloro-3-[4-(3-chloro-4-ethoxyphenyl)thiophen-2-yl]-2-(2,4-difluorobenzyl)-2H-isoquinolin-1-one]", "Ki": "> 500"},
      {"smiles": "Cc1cccc(-c2cc3ccccc3c(=O)n2Cc2ccc(C)cc2C)c1", "note": "[2-(2,4-dimethylbenzyl)-3-m-tolyl-2H-isoquinolin-1-one]", "Ki": "150 to 500"},
      {"smiles": "Cc1ccc(Cn2c(-c3ccsc3)cc3ccccc3c2=O)c(C)c1", "note": "[2-(2,4-dimethylbenzyl)-3-thiophen-3-yl-2H-isoquinolin-1-one]", "Ki": "> 500"},
      {"smiles": "Cc1ccc(Cn2c(C#CC(C)(C)O)cc3ccccc3c2=O)c(C)c1", "note": "[2-(2,4-dimethylbenzyl)-3-(3-hydroxy-3-methylbut-1-ynyl)-2H-isoquinolin-1-one]", "Ki": "> 500"},
      {"smiles": "CS(=O)(=O)c1ccc(-c2ccc(-c3cc4cccc(Cl)c4c(=O)n3Cc3ccc(F)cc3F)s2)cc1", "note": "[8-chloro-2-(2,4-difluorobenzyl)-3-[5-(4-methanesulfonylphenyl)thiophen-2-yl]-2H-isoquinolin-1-one]", "Ki": "10 to 150"}
    ]}
  ]
}
